Measured values: publication PMC4105339 (Antiviral research, 2014)
Marks after values point to notes of the source that are not given here.

Key:
[1] = tested on: A/Mississippi/03/01 H1N1 wild type neuraminidase
[2] = tested on: H5N1 clade 1 A/Chicken/Vietnam/08/2004 neuraminidase; details: 37°C
[3] = tested on: H5N1 clade 2 A/Chicken/Bangli/BBVD-563/2007 neuraminidase; details: 37°C
[4] = tested on: A/Fukui/45/04 H3N2 wild type neuraminidase
[5] = tested on: human influenza A strains (neuraminidase)
[6] = target: B/Perth/211/01 wild type neuraminidase; details: cited from earlier work
[7] = tested on: B/Perth/211/01 influenza B wild type neuraminidase
[8] = tested on: wild type viruses (neuraminidase)
[9] = target: clade 1 H5N1 neuraminidase; details: cited from earlier work
[10] = target: clade 2 H5N1 neuraminidase; details: cited from earlier work
[11] = tested on: H3N2 wild type neuraminidase; details: cited from earlier work

| Structure (SMILES) | Time (T½) for reaction rates to reach half the maximum rate of the uninhibited control [1] | Time (T½) for reaction rates to reach half the maximum rate of the uninhibited control [2] | Time (T½) for reaction rates to reach half the maximum rate of the uninhibited control [3] | Time (T½) for reaction rates to reach half the maximum rate of the uninhibited control [4] [h] | T½ values [5] [h] | IC50 [6] [nM] | Time (T½) for reaction rates to reach half the maximum rate of the uninhibited control [7] | T½ (range over viruses) [8] [h] | IC50 [9] [nM] | increase in IC50 from 10 to 60 min after addition of substrate in the preincubation reaction [9] [fold] | IC50 [10] [nM] | increase in IC50 from 10 to 60 min after addition of substrate in the preincubation reaction [10] [fold] | changes in IC50 from 10 to 60 min in the preincubation reaction [11] [fold] |
| --- | --- | --- | --- | --- | --- | --- | --- | --- | --- | --- | --- | --- | --- |
| CCC(CC)[C@H](NC(C)=O)[C@@H]1[C@H](O)[C@@H](C(=O)O)C[C@H]1N=C(N)N [Peramivir, peramivir] | >240^* min | 59.9 min | 84.4 min | >4 | > 4 | 2.8 | – | – | – | – | – | – | – |
| CC(=O)N[C@H]1[C@H]([C@H](O)[C@H](O)CO)OC(C(=O)O)=C[C@@H]1N=C(N)N [Zanamivir] | 41.3 min | 27.7^* min | 72.8^* min | – | – | 8.9 | 24.6^* min | 0.467 to 1.82 | 2.1 | 4.5 | 1.3 | 2.2 | 1.3 |
